Results: patent US6525001B1, “Substituted pyrimidine and pyridine herbicides” (Mid-American Commercialization Corporation, priority 1997, dated 2003)

Assays:
Assay type in all cases: in vivo
[1] = system: purple nutsedge (Cyperus rotundus); assay: Test E pre-/postemergence/post directed; design: key: 0 is no injury; 100 is complete control
Source text: Seeds, tubers, or plant parts of alexandergrass (Brachiaria plantaginea), annual bluegrass (Poa annua), arrowleaf sida (Sida rhombifolia), barnyardgrass (Echinochloa crus-galli), bermudagrass (Cynodon dactylon), citrus (Citrus sinensis), common chickweed (Stellaria media), common purslane (Portulaca oleracea), common ragweed (Ambrosia elatior), common groundsel (Senecio vulgaris), dallisgrass (Paspalum dilatatum), goosegrass (Eleusine indica), green foxtail (Setaria viridis), guineagrass (Panicum maximum), itchgrass (Rottboellia exaltata), johnson grass (Sorghum halepense), kochia (Kochia scoparia), large crabgrass (Digitaria sanguinalis), leafy spurge (Euphorbia esula), pitted morningglory (Ipomoea lacunosa), purple nutsedge (Cyperus rotundus), quackgrass (Agropyron repens), Russian thistle (Salsola kali), sandbur (Cenchrus echinatus), sourgrass (Trichachne insularis), Spanishneedles (Bidens bipinnata), sugarcane (Saccharum officinarum), surinam grass (Brachiaria decumbens) and tall mallow (Malva sylvestris) were planted into greenhouse pots of flats containing greenhouse planting medium. Plant species were grown grown in separate pots or individual compartments. Preemergence applications were made within one day of planting the seed or plant part. Postemergence applications were applied when the plants were in the two to four leaf stage (three to twenty cm).
Test chemicals were formulated in a non-phytotoxic solvent mixture which included a surfactant and applied preemergence to the soil surface, postemergence to the plants or as a post directed spray to plants and soil at the base of the target species. Untreated control plants and treated plants were placed in the greenhouse and visually evaluated for injury 13 to 21 days after herbicide application. Plant response ratings, summarized in Table E, are based on a 0 to 100 scale where 0 is no injury and 100 is complete control. A dash (−) response means no test result.

[2] = system: alexandergrass (Brachiaria plantaginea); assay: Test E pre-/postemergence/post directed
How it was run: (§1)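 Injury was scored visually on a 0 to 100 scale (100 = complete control) 13 to 21 days after treatment of greenhouse-grown plants. Test chemicals, in a surfactant-containing non-phytotoxic solvent, were sprayed onto soil within a day of planting, onto plants at the two to four leaf stage, or directed at the base of the plants.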

[3] = system: common groundsel (Senecio vulgaris); assay: Test E pre-/postemergence/post directed
How it was run: as §1

[4] = system: johnson grass (Sorghum halepense); assay: Test E pre-/postemergence/post directed
How it was run: as §1

[5] = system: pitted morningglory (Ipomoea lacunosa); assay: Test E pre-/postemergence/post directed
How it was run: as §1

[6] = system: surinam grass (Brachiaria decumbens); assay: Test E pre-/postemergence/post directed
How it was run: as §1

[7] = system: corn (Zea mays); assay: Test C; design: key: 0 was no effect; 100 was complete control; conditions: PREEMERGENCE
[8] = system: field bindweed (Convolvulus arvensis); assay: Test C; design: key: 0 was no effect; 100 was complete control; conditions: PREEMERGENCE
[9] = system: hairy beggarticks (Bidens pilosa); assay: Test C; design: key: 0 was no effect; 100 was complete control; conditions: PREEMERGENCE
[10] = system: ivyleaf morningglory (Ipomoea hederacea); assay: Test C; conditions: PREEMERGENCE
[11] = system: purple nutsedge (Cyperus rotundus); assay: Test C; design: key: 0 was no effect; 100 was complete control; conditions: PREEMERGENCE
[12] = system: surinam grass (Brachiaria decumbens); assay: Test C; conditions: PREEMERGENCE
[13] = system: wild poinsettia (Euphorbia heterophylla); assay: Test C; design: key: 0 was no effect; 100 was complete control; conditions: PREEMERGENCE
[14] = system: barnyardgrass (Echinochloa crus-galli); assay: Test A pre-/postemergence; design: key: 0 is no effect; 10 is complete control; conditions: 0 to 10 scale
Method: (§2) Seeds of barnyardgrass (Echinochloa crus-galli), crabgrass (Digitaria spp.), morningglory (Ipomoea spp.), and velvetleaf (Abutilon theophrasti) were planted into a sandy loam soil and treated preemergence by soil drench with test chemicals formulated in a non-phytotoxic solvent mixture which includes a surfactant. At the same time, these crop and weed species were also treated postemergence sprayed to runoff, with test chemicals formulated in the same manner. Plants ranged in height from two to eighteen cm and were in the one to two leaf stage for the postemergence treatment. Treated plants and untreated controls were maintained in a greenhouse for approximately eleven days, after which all treated plants were compared to untreated controls and visually evaluated for injury. Plant response ratings, summarized in Table A, are based on a 0 to 10 scale where 0 is no effect and 10 is complete control. A dash (−) response means no test results.

[15] = system: crabgrass (Digitaria spp.); assay: Test A pre-/postemergence; design: key: 0 is no effect; 10 is complete control; conditions: 0 to 10 scale
Method: as §2

[16] = system: morningglory (Ipomoea spp.); assay: Test A pre-/postemergence; design: key: 0 is no effect; 10 is complete control; conditions: 0 to 10 scale
Method: as §2

[17] = system: velvetleaf (Abutilon theophrasti); assay: Test A pre-/postemergence; design: key: 0 is no effect; 10 is complete control; conditions: 0 to 10 scale
Method: as §2

[18] = PRE SOIL DRENCH, Rate 2000 g/ha
[19] = postemergence SPRAYED TO RUNOFF, Rate 1000 g/ha

Cc1cnc(-n2cnc(C(F)(F)F)n2)nc1C(=O)c1cccc(C(F)(F)F)c1 [Compound 67]
Plant response rating, Purple nutsedge ([1]; PREEMERGENCE, Rate 32 g/ha): 0 | Plant response rating, Purple nutsedge ([1]; PREEMERGENCE, Rate 64 g/ha): 5 | Plant response rating, Purple nutsedge ([1]; PREEMERGENCE, Rate 125 g/ha): 5 | Plant response rating, Purple nutsedge ([1]; PREEMERGENCE, Rate 250 g/ha): 10 | Plant response rating, Alexandergrass ([2]; PREEMERGENCE, Rate 32 g/ha): 25 | Plant response rating, Alexandergrass ([2]; PREEMERGENCE, Rate 64 g/ha): 40 | Plant response rating, Alexandergrass ([2]; PREEMERGENCE, Rate 125 g/ha): 70 | Plant response rating, Alexandergrass ([2]; PREEMERGENCE, Rate 250 g/ha): 95 | Plant response rating, Com. groundsel ([3]; PREEMERGENCE, Rate 64 g/ha): 50 | Plant response rating, Com. groundsel ([3]; PREEMERGENCE, Rate 125 g/ha): 95 | Plant response rating, Johnsongrass ([4]; PREEMERGENCE, Rate 32 g/ha): 35 | Plant response rating, Johnsongrass ([4]; PREEMERGENCE, Rate 64 g/ha): 35 | Plant response rating, Johnsongrass ([4]; PREEMERGENCE, Rate 125 g/ha): 50 | Plant response rating, Johnsongrass ([4]; PREEMERGENCE, Rate 250 g/ha): 80 | Plant response rating, P. morninglory ([5]; PREEMERGENCE, Rate 32 g/ha): 60 | Plant response rating, P. morninglory ([5]; PREEMERGENCE, Rate 64 g/ha): 75 | Plant response rating, P. morninglory ([5]; PREEMERGENCE, Rate 125 g/ha): 90 | Plant response rating, P. morninglory ([5]; PREEMERGENCE, Rate 250 g/ha): 90 | Plant response rating, Surinam grass ([6]; PREEMERGENCE, Rate 32 g/ha): 35 | Plant response rating, Surinam grass ([6]; PREEMERGENCE, Rate 64 g/ha): 75 | Plant response rating, Surinam grass ([6]; PREEMERGENCE, Rate 125 g/ha): 75

COc1cnc(-c2ccc(C(F)(F)F)cc2)nc1Cc1cccc(C(F)(F)F)c1 [Compound 23]
Plant response rating, Corn ([7]; Rate 35 g/ha): 0 | Plant response rating, Corn ([7]; Rate 70 g/ha): 0 | Plant response rating, Corn ([7]; Rate 140 g/ha): 5 | Plant response rating, Field bindweed ([8]; Rate 35 g/ha): 20 | Plant response rating, Field bindweed ([8]; Rate 70 g/ha): 100 | Plant response rating, Field bindweed ([8]; Rate 140 g/ha): 100 | Plant response rating, H. beggarticks ([9]; Rate 35 g/ha): 50 | Plant response rating, H. beggarticks ([9]; Rate 70 g/ha): 50 | Plant response rating, H. beggarticks ([9]; Rate 140 g/ha): 100 | Plant response rating, I. morningglory ([10]; Rate 35 g/ha): 5 | Plant response rating, I. morningglory ([10]; Rate 140 g/ha): 40 | Plant response rating, Purple nutsedge ([11]; Rate 35 g/ha): 0 | Plant response rating, Purple nutsedge ([11]; Rate 70 g/ha): 0 | Plant response rating, Purple nutsedge ([11]; Rate 140 g/ha): 0 | Plant response rating, Surinam grass ([12]; Rate 35 g/ha): 5 | Plant response rating, Surinam grass ([12]; Rate 70 g/ha): 45 | Plant response rating, Surinam grass ([12]; Rate 140 g/ha): 60 | Plant response rating, Wild poinsettia ([13]; Rate 35 g/ha): 5 | Plant response rating, Wild poinsettia ([13]; Rate 70 g/ha): 5 | Plant response rating, Wild poinsettia ([13]; Rate 140 g/ha): 10 | Plant response rating, Purple nutsedge ([1]; POSTEMERGENCE, Rate 250 g/ha): 0 | Plant response rating, Purple nutsedge ([1]; PREEMERGENCE, Rate 32 g/ha): 0 | Plant response rating, Purple nutsedge ([1]; PREEMERGENCE, Rate 64 g/ha): 0 | Plant response rating, Purple nutsedge ([1]; PREEMERGENCE, Rate 125 g/ha): 0 | Plant response rating, Purple nutsedge ([1]; PREEMERGENCE, Rate 250 g/ha): 0 | Plant response rating, Alexandergrass ([2]; POSTEMERGENCE, Rate 250 g/ha): 80 | Plant response rating, Alexandergrass ([2]; PREEMERGENCE, Rate 125 g/ha): 85 | Plant response rating, Alexandergrass ([2]; PREEMERGENCE, Rate 250 g/ha): 98 | Plant response rating, Com. groundsel ([3]; POSTEMERGENCE, Rate 250 g/ha): 40 | Plant response rating, Johnsongrass ([4]; POSTEMERGENCE, Rate 250 g/ha): 65 | Plant response rating, Johnsongrass ([4]; PREEMERGENCE, Rate 32 g/ha): 70 | Plant response rating, Johnsongrass ([4]; PREEMERGENCE, Rate 64 g/ha): 80 | Plant response rating, Johnsongrass ([4]; PREEMERGENCE, Rate 125 g/ha): 80 | Plant response rating, Johnsongrass ([4]; PREEMERGENCE, Rate 250 g/ha): 90 | Plant response rating, P. morninglory ([5]; POSTEMERGENCE, Rate 250 g/ha): 40 | Plant response rating, P. morninglory ([5]; PREEMERGENCE, Rate 125 g/ha): 50 | Plant response rating, P. morninglory ([5]; PREEMERGENCE, Rate 250 g/ha): 80

Cc1cnc(-c2ccc(C(F)(F)F)cc2)nc1Cc1cccc(C(F)(F)F)c1 [Example 1, 5-methyl-2-[4-(trifluoromethyl)phenyl]-4-[[3-(trifluoromethyl)phenyl]methyl]pyrimidine]
Plant response rating, Barnyardgrass [14, 18]: 10 | Plant response rating, Barnyardgrass [14, 19]: 9 | Plant response rating, Crabgrass [15, 18]: 10 | Plant response rating, Crabgrass [15, 19]: 9 | Plant response rating, Morningglory [16, 18]: 8 | Plant response rating, Morningglory [16, 19]: 9 | Plant response rating, Velvetleaf [17, 18]: 9 | Plant response rating, Velvetleaf [17, 19]: 9 | Plant response rating, Corn ([7]; Rate 35 g/ha): 5 | Plant response rating, Corn ([7]; Rate 70 g/ha): 10 | Plant response rating, Corn ([7]; Rate 140 g/ha): 10 | Plant response rating, Field bindweed ([8]; Rate 35 g/ha): 65 | Plant response rating, Field bindweed ([8]; Rate 70 g/ha): 50 | Plant response rating, Field bindweed ([8]; Rate 140 g/ha): 50 | Plant response rating, H. beggarticks ([9]; Rate 35 g/ha): 20 | Plant response rating, H. beggarticks ([9]; Rate 70 g/ha): 100 | Plant response rating, H. beggarticks ([9]; Rate 140 g/ha): 100 | Plant response rating, I. morningglory ([10]; Rate 35 g/ha): 15 | Plant response rating, I. morningglory ([10]; Rate 70 g/ha): 15 | Plant response rating, I. morningglory ([10]; Rate 140 g/ha): 20 | Plant response rating, Purple nutsedge ([11]; Rate 35 g/ha): 0 | Plant response rating, Purple nutsedge ([11]; Rate 70 g/ha): 0 | Plant response rating, Purple nutsedge ([11]; Rate 140 g/ha): 0 | Plant response rating, Surinam grass ([12]; Rate 35 g/ha): 50 | Plant response rating, Surinam grass ([12]; Rate 70 g/ha): 90 | Plant response rating, Surinam grass ([12]; Rate 140 g/ha): 95 | Plant response rating, Wild poinsettia ([13]; Rate 35 g/ha): 0 | Plant response rating, Wild poinsettia ([13]; Rate 70 g/ha): 10 | Plant response rating, Wild poinsettia ([13]; Rate 140 g/ha): 50 | Plant response rating, Purple nutsedge ([1]; POSTEMERGENCE, Rate 250 g/ha): 0 | Plant response rating, Purple nutsedge ([1]; PREEMERGENCE, Rate 32 g/ha): 0 | Plant response rating, Purple nutsedge ([1]; PREEMERGENCE, Rate 64 g/ha): 0 | Plant response rating, Purple nutsedge ([1]; PREEMERGENCE, Rate 125 g/ha): 0 | Plant response rating, Purple nutsedge ([1]; PREEMERGENCE, Rate 250 g/ha): 50 | Plant response rating, Alexandergrass ([2]; POSTEMERGENCE, Rate 250 g/ha): 90 | Plant response rating, Alexandergrass ([2]; PREEMERGENCE, Rate 32 g/ha): 10 | Plant response rating, Alexandergrass ([2]; PREEMERGENCE, Rate 64 g/ha): 75 | Plant response rating, Alexandergrass ([2]; PREEMERGENCE, Rate 125 g/ha): 90 | Plant response rating, Com. groundsel ([3]; POSTEMERGENCE, Rate 250 g/ha): 75 | Plant response rating, Com. groundsel ([3]; PREEMERGENCE, Rate 32 g/ha): 98 | Plant response rating, Johnsongrass ([4]; POSTEMERGENCE, Rate 250 g/ha): 90 | Plant response rating, Johnsongrass ([4]; PREEMERGENCE, Rate 32 g/ha): 5 | Plant response rating, Johnsongrass ([4]; PREEMERGENCE, Rate 64 g/ha): 40 | Plant response rating, Johnsongrass ([4]; PREEMERGENCE, Rate 125 g/ha): 90 | Plant response rating, P. morninglory ([5]; POSTEMERGENCE, Rate 250 g/ha): 80 | Plant response rating, P. morninglory ([5]; PREEMERGENCE, Rate 32 g/ha): 70 | Plant response rating, P. morninglory ([5]; PREEMERGENCE, Rate 64 g/ha): 80 | Plant response rating, Surinam grass ([6]; POSTEMERGENCE, Rate 250 g/ha): 30 | Plant response rating, Surinam grass ([6]; PREEMERGENCE, Rate 32 g/ha): 65 | Plant response rating, Surinam grass ([6]; PREEMERGENCE, Rate 64 g/ha): 35 | Plant response rating, Surinam grass ([6]; PREEMERGENCE, Rate 125 g/ha): 98
